In patent publication US20250312499A1, “KISSPEPTIN RECEPTOR (KISS1R) TARGETED THERAPEUTICS AND USES THEREOF” (priority 2024, published 2025):
Numbered stars: 1 amine (or outer) side, 2 acyl side, 3 side chain; on linkers, the order of the positions; unused ones are H or OH. Square brackets hold non-standard residues; d marks the D form. Peptide text beside a SMILES is read from it. * marks the point of attachment. DOTA = O=C(O)CN1CCN(CC(=O)O)CCN(CC(=O)*)CCN(CC(=O)O)CC1; Gly(N-(3-F-4-Me-benzyl)) = Cc1ccc(CNCC(=O)*)cc1F; X11 = O=C(c1ccc(-c2ccccc2)c(OCCN[*:1])c1)[*:2]; Gly(Nα-4-MeO-benzyl) = COc1ccc(CNCC(=O)*)cc1; Api(1-amidino) = N=C(N)N1CCC(N)(C(=O)O)CC1; Phe(4-CN) = N#Cc1ccc(C[C@H](N)C(=O)O)cc1; Phe(3-F) = N[C@@H](Cc1cccc(F)c1)C(=O)O; 2Nal = N[C@@H](Cc1ccc2ccccc2c1)C(=O)O; d2Nal = N[C@H](Cc1ccc2ccccc2c1)C(=O)O; Hyp = O=C(O)[C@@H]1C[C@@H](O)CN1; Trx = NC[C@H]1CC[C@H](C(=O)O)CC1; X1 = O=C(CN1CCC(N[*:1])CC1)[*:2]; dCya = N[C@H](CS(=O)(=O)O)C(=O)O; 4Pal = N[C@@H](Cc1ccncc1)C(=O)O; d4Pal = N[C@H](Cc1ccncc1)C(=O)O; Cha = N[C@@H](CC1CCCCC1)C(=O)O; N(octyl)Gly = CCCCCCCCNCC(=O)O; 4Amb = NCc1ccc(C(=O)O)cc1; 4Abz = Nc1ccc(C(=O)O)cc1; Api = NC1(C(=O)O)CCNCC1; Ahx = NCCCCCC(=O)O; azaGly = NNC(=O)O; βAla = NCCC(=O)O

Target: human kisspeptin receptor (Homo sapiens (Human), UniProt Q969F8)
Sequence (Q969F8 whole entry): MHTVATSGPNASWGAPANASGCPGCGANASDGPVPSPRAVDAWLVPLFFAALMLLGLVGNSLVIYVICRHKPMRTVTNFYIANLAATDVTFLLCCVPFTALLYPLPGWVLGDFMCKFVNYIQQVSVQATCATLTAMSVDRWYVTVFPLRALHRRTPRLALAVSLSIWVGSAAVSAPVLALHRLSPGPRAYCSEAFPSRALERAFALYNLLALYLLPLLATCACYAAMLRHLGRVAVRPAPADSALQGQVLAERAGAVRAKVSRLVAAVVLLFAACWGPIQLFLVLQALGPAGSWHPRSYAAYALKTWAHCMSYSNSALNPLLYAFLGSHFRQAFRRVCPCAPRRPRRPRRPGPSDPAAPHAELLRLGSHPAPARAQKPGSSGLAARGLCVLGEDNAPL
Assay: Human KISS1R binding assay (membrane competition binding)
Conditions: 90 min at room temperature; competition with 0.2 nM [125I]-metastin (45-54); Flp-In T-Rex 293 kisspeptin membranes; metal complexes nonradioactive Ga, In, Lu; read-out: hKiSSR Binding Ki (90 min)
In short: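 Membranes from tetracycline-induced (48 h) Flp-In T-Rex 293 cells expressing receptor, 5–10 μg, incubated 90 min at room temperature with 0.2 nM [125I]-metastin (45-54) and competitor (typically 0–10,000 nM) in Tris/Mg/Ca/EGTA/0.1% BSA, pH 7.4. Filtration, washing, counting; Ki by non-linear regression.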

`Cc1ccc(CNCC(=O)N2CCC(NC(=O)[C@H](CC(C)C)NC(=O)NNC(=O)[C@H](Cc3cccc(F)c3)NC(=O)[C@@H](NC(=O)[C@H](CC(N)=O)NC(=O)CCCCCNC(=O)CN3CCN(CC(=O)O)CCN(CC(=O)O)CCN(CC(=O)O)CC3)[C@@H](C)O)(C(=O)N[C@@H](Cc3ccncc3)C(N)=O)CC2)cc1F` [Compound 169] ({DOTA-Ahx}-NT[Phe(3-F)][azaGly]L[Api](Gly(N-(3-F-4-Me-benzyl)))[4Pal]-NH2) and `Cc1ccc(CNCC(=O)N2CCC(NC(=O)[C@H](CC(C)C)NC(=O)NNC(=O)[C@H](Cc3ccccc3)NC(=O)[C@@H](NC(=O)[C@H](CC(N)=O)NC(=O)[C@@H](Cc3ccncc3)NC(=O)[C@@H](Cc3ccc(O)cc3)NC(=O)CCCCCNC(=O)CN3CCN(CC(=O)O)CCN(CC(=O)O)CCN(CC(=O)O)CC3)[C@@H](C)O)(C(=O)N[C@@H](Cc3ccncc3)C(N)=O)CC2)cc1F` [Compound 294] ({DOTA-Ahx}-[dY][d4Pal]NTF[azaGly]L[Api](Gly(N-(3-F-4-Me-benzyl)))[4Pal]-NH2) cannot be ordered by Ki: less than 10 nM for the first, less than 10 nM for the second.

First: Cc1ccc(CNCC(=O)N2CCC(NC(=O)[C@H](CC(C)C)NC(=O)NNC(=O)[C@H](Cc3ccccc3)NC(=O)[C@@H](CC(N)=O)NC(=O)[C@@H](CCC(=O)O)NC(=O)[C@@H](CCCCN)NC(=O)[C@@H](CC(N)=O)NC(=O)[C@@H](CC(N)=O)NC(=O)CCNC(=O)CN3CCN(CC(=O)O)CCN(CC(=O)O)CCN(CC(=O)O)CC3)(C(=O)N[C@@H](Cc3c[nH]c4ccccc34)C(N)=O)CC2)cc1F [Compound 16] ({DOTA-βAla}-[dN][dN][dK][dE][dN]F[azaGly]L[Api](Gly(N-(3-F-4-Me-benzyl)))W-NH2)
Second: COc1ccc(CNCC(=O)N2CCC(NC(=O)[C@H](CC(C)C)NC(=O)NNC(=O)[C@H](Cc3ccccc3)NC(=O)[C@@H](NC(=O)[C@H](CC(N)=O)NC(=O)[C@H](CCC(=O)O)NC(=O)CCCCCNC(=O)CN3CCN(CC(=O)O)CCN(CC(=O)O)CCN(CC(=O)O)CC3)[C@@H](C)O)(C(=O)N[C@@H](Cc3ccccc3)C(N)=O)CC2)cc1 [Compound 236] ({DOTA-Ahx}-ENTF[azaGly]L[Api](Gly(Nα-4-MeO-benzyl))F-NH2)
The Ki of the first is higher: greater than 100 nM for the first, less than 10 nM for the second.

First: Cc1ccc(CNCC(=O)N2CCC(NC(=O)[C@H](CC(C)C)NC(=O)NNC(=O)[C@H](Cc3ccccc3)NC(=O)[C@H]3CC[C@H](CNC(=O)CCCCCNC(=O)CN4CCN(CC(=O)O)CCN(CC(=O)O)CCN(CC(=O)O)CC4)CC3)(C(=O)N[C@@H](Cc3c[nH]c4ccccc34)C(N)=O)CC2)cc1F [Compound 38] ({DOTA-Ahx-Trx}-F[azaGly]L[Api](Gly(N-(3-F-4-Me-benzyl)))W-NH2)
Second: Cc1ccc(CNCC(=O)N2CCC(NC(=O)[C@H](CC(C)C)NC(=O)NNC(=O)[C@H](Cc3ccccc3)NC(=O)[C@@H](N)CCCCNC(=O)CN3CCN(CC(=O)O)CCN(CC(=O)O)CCN(CC(=O)O)CC3)(C(=O)N[C@@H](Cc3c[nH]c4ccccc34)C(N)=O)CC2)cc1F [Compound 37] (H-K(DOTA)F[azaGly]L[Api](Gly(N-(3-F-4-Me-benzyl)))W-NH2)
The Ki of the first is higher: greater than 100 nM for the first, less than 10 nM for the second. The second binds more tightly here.

First: Cc1ccc(CNCC(=O)N2CCC(NC(=O)[C@H](CC(C)C)NC(=O)NNC(=O)[C@H](Cc3ccccc3)NC(=O)CCCCCNC(=O)CN3CCN(CC(=O)O)CCN(CC(=O)O)CCN(CC(=O)O)CC3)(C(=O)N[C@@H](CC3CCCCC3)C(N)=O)CC2)cc1F [Compound 141] ({DOTA-Ahx}-F[azaGly]L[Api](Gly(N-(3-F-4-Me-benzyl)))[Cha]-NH2)
Second: Cc1ccc(CNCC(=O)N2CCC(NC(=O)[C@H](CC(C)C)NC(=O)NNC(=O)[C@H](Cc3ccccc3)NC(=O)CN3CCC(NC(=O)CN4CCN(CC(=O)O)CCN(CC(=O)O)CCN(CC(=O)O)CC4)CC3)(C(=O)N[C@@H](Cc3c[nH]cn3)C(N)=O)CC2)cc1F [Compound 248] ({DOTA}-[X1]F[azaGly]L[Api](Gly(N-(3-F-4-Me-benzyl)))H-NH2)
The Ki of the first is lower: 10 to 100 nM for the first, greater than 100 nM for the second.

`Cc1ccc(CNCC(=O)N2CCC(NC(=O)c3ccc(-c4ccccc4)c(OCCNC(=O)[C@H](Cc4ccccc4)NC(=O)[C@@H](NC(=O)[C@H](CC(N)=O)NC(=O)[C@@H](Cc4c[nH]c5ccccc45)NC(=O)[C@@H](Cc4ccc(O)cc4)NC(=O)CCCCCNC(=O)CN4CCN(CC(=O)O)CCN(CC(=O)O)CCN(CC(=O)O)CC4)[C@@H](C)O)c3)(C(=O)N[C@@H](Cc3c[nH]c4ccccc34)C(N)=O)CC2)cc1F` [Compound 279] ({DOTA-Ahx}-[dY][dW]NTF[X11][Api](Gly(N-(3-F-4-Me-benzyl)))W-NH2) and `COc1ccc(CNCC(=O)N2CCC(NC(=O)[C@H](CC(C)C)NC(=O)NNC(=O)[C@H](Cc3ccccc3)NC(=O)[C@@H](NC(=O)[C@H](CC(N)=O)NC(=O)[C@@H](Cc3c[nH]c4ccccc34)NC(=O)[C@@H](Cc3ccc(O)cc3)NC(=O)CCCCCNC(=O)CN3CCN(CC(=O)O)CCN(CC(=O)O)CCN(CC(=O)O)CC3)[C@@H](C)O)(C(=O)N[C@@H](Cc3ccccc3)C(N)=O)CC2)cc1` [Compound 140] ({DOTA-Ahx}-[dY][dW]NTF[azaGly]L[Api](Gly(Nα-4-MeO-benzyl))F-NH2) cannot be ordered by Ki: less than 10 nM for the first, less than 10 nM for the second.

`CC(C)C[C@H](NC(=O)NNC(=O)[C@H](Cc1ccccc1)NC(=O)[C@@H](NC(=O)[C@H](CC(N)=O)NC(=O)[C@@H]1C[C@@H](O)CN1C(=O)[C@@H](Cc1ccc(O)cc1)NC(=O)CCCCCNC(=O)CN1CCN(CC(=O)O)CCN(CC(=O)O)CCN(CC(=O)O)CC1)[C@@H](C)O)C(=O)NC1(C(=O)N[C@@H](Cc2c[nH]c3ccccc23)C(N)=O)CCN(C(=N)N)CC1` [Compound 311] ({DOTA-Ahx}-[dY][Hyp]NTF[azaGly]L[Api(1-amidino)]W-NH2) and `CC(C)C[C@H](NC(=O)NNC(=O)[C@H](Cc1ccccc1)NC(=O)[C@@H](NC(=O)[C@H](CC(N)=O)NC(=O)[C@H](Cc1ccc2ccccc2c1)NC(=O)[C@@H](Cc1ccc(O)cc1)NC(=O)CCCCCNC(=O)CN1CCN(CC(=O)O)CCN(CC(=O)O)CCN(CC(=O)O)CC1)[C@@H](C)O)C(=O)NC1(C(=O)N[C@@H](Cc2ccc(C#N)cc2)C(N)=O)CCN(C(=N)N)CC1` [Compound 278] ({DOTA-Ahx}-[dY][2Nal]NTF[azaGly]L[Api(1-amidino)][Phe(4-CN)]-NH2) cannot be ordered by Ki: less than 10 nM for the first, less than 10 nM for the second.

First: Cc1ccc(CNCC(=O)N2CCC(NC(=O)[C@H](CC(C)C)NC(=O)NNC(=O)[C@H](Cc3ccccc3)NC(=O)c3ccc(NC(=O)CN4CCN(CC(=O)O)CCN(CC(=O)O)CCN(CC(=O)O)CC4)cc3)(C(=O)N[C@@H](Cc3c[nH]c4ccccc34)C(N)=O)CC2)cc1F [Compound 50] ({DOTA-4Abz}-F[azaGly]L[Api](Gly(N-(3-F-4-Me-benzyl)))W-NH2)
Second: Cc1ccc(CNCC(=O)N2CCC(NC(=O)c3cccc(CNC(=O)[C@H](Cc4ccccc4)NC(=O)CCCCCNC(=O)CN4CCN(CC(=O)O)CCN(CC(=O)O)CCN(CC(=O)O)CC4)n3)(C(=O)N[C@@H](Cc3c[nH]c4ccccc34)C(N)=O)CC2)cc1F [Compound 135]
The Ki of the first is lower: less than 10 nM for the first, greater than 100 nM for the second.

`Cc1ccc(CNCC(=O)N2CCC(NC(=O)[C@H](CC(C)C)NC(=O)NNC(=O)[C@H](Cc3ccccc3)NC(=O)[C@@H](NC(=O)[C@H](CC(N)=O)NC(=O)[C@@H](Cc3c[nH]c4ccccc34)NC(=O)[C@@H](Cc3ccc(O)cc3)NC(=O)CCCCCNC(=O)[C@@H](CS(=O)(=O)O)NC(=O)[C@@H](CS(=O)(=O)O)NC(=O)CN3CCN(CC(=O)O)CCN(CC(=O)O)CCN(CC(=O)O)CC3)[C@@H](C)O)(C(=O)N[C@@H](Cc3c[nH]c4ccccc34)C(N)=O)CC2)cc1F` [Compound 120] ({DOTA}-[dCya][dCya][Ahx][dY][dW]NTF[azaGly]L[Api](Gly(N-(3-F-4-Me-benzyl)))W-NH2) and `CCCCCCCCNCC(=O)N1CCC(NC(=O)[C@H](CC(C)C)NC(=O)NNC(=O)[C@H](Cc2ccccc2)NC(=O)[C@@H](NC(=O)[C@H](CC(N)=O)NC(=O)[C@@H](Cc2ccc3ccccc3c2)NC(=O)[C@@H](Cc2ccc(O)cc2)NC(=O)CCCCCNC(=O)CN2CCN(CC(=O)O)CCN(CC(=O)O)CCN(CC(=O)O)CC2)[C@@H](C)O)(C(=O)N[C@H](Cc2c[nH]c3ccccc23)C(N)=O)CC1` [Compound 374] ({DOTA-Ahx}-[dY][d2Nal]NTF[azaGly]L[Api](N(octyl)Gly)[dW]-NH2) cannot be ordered by Ki: less than 10 nM for the first, less than 10 nM for the second.

Going from `CC(C)C[C@H](NC(=O)CNC(=O)[C@H](Cc1ccccc1)NC(=O)CCCCCNC(=O)CN1CCN(CC(=O)O)CCN(CC(=O)O)CCN(CC(=O)O)CC1)C(=O)NC1(C(=O)N[C@@H](Cc2c[nH]c3ccccc23)C(N)=O)CCN(C(=N)N)CC1` [Compound 3] ({DOTA-Ahx}-FGL[Api(1-amidino)]W-NH2) to `CC(C)C[C@H](NC(=O)NNC(=O)[C@H](Cc1ccccc1)NC(=O)[C@@H](NC(=O)[C@H](CC(N)=O)NC(=O)[C@@H](Cc1ccc2ccccc2c1)NC(=O)CN1CCN(CC(=O)O)CCN(CC(=O)O)CCN(CC(=O)O)CC1)[C@@H](C)O)C(=O)NC1(C(=O)N[C@@H](Cc2ccccc2)C(N)=O)CCN(C(=N)N)CC1` [Compound 302] ({DOTA}-[d2Nal]NTF[azaGly]L[Api(1-amidino)]F-NH2), the Ki falls from greater than 100 nM to less than 10 nM.

`CSCC[C@H](NC(=O)c1ccc(CNC(=O)CN2CCN(CC(=O)O)CCN(CC(=O)O)CCN(CC(=O)O)CC2)cc1)C(=O)N[C@H](C(=O)NCc1ccc(C(=O)N[C@@H](CCSC)C(=O)N[C@H](C(=O)N[C@@H](CCCCNC(=O)CCCCC(=O)N[C@@H](CC(N)=O)C(=O)N[C@H](C(=O)N[C@@H](Cc2ccccc2)C(=O)NNC(=O)N[C@@H](CC(C)C)C(=O)NC2(C(=O)N[C@@H](Cc3c[nH]c4ccccc34)C(N)=O)CCN(C(=O)CNCc3ccc(C)c(F)c3)CC2)[C@@H](C)O)C(=O)O)C(C)C)cc1)C(C)C` [Compound 167] and `Cc1ccc(CNCC(=O)N2CCC(NC(=O)[C@H](CC(C)C)NC(=O)NNC(=O)[C@H](Cc3ccccc3)NC(=O)[C@@H](NC(=O)[C@H](CC(N)=O)NC(=O)[C@@H](CCC(=O)O)NC(=O)c3ccc(CNC(=O)CN4CCN(CC(=O)O)CCN(CC(=O)O)CCN(CC(=O)O)CC4)cc3)[C@@H](C)O)(C(=O)N[C@@H](Cc3ccc(C#N)cc3)C(N)=O)CC2)cc1F` [Compound 242] ({DOTA-4Amb}-[dE]NTF[azaGly]L[Api](Gly(N-(3-F-4-Me-benzyl)))[Phe(4-CN)]-NH2) cannot be ordered by Ki: less than 10 nM for the first, less than 10 nM for the second.
